Reference: patent publication US20090287077A1, “SYSTEM FOR DETECTING FUNCTION OF INTESTINAL BARRIER AND METHOD FOR USING THE SAME” (NATIONAL TAIWAN UNIVERSITY, priority 2008, published 2009)

Assay: Plasma concentration of Gd-containing contrast agent after injection into jejunal pouch (MRI of plasma samples, standard curve)
Assay type: in vivo, rat
Settings: for concentration of the Gd-containing contrast agent in the plasma: 0.5 ml (0.5 M) into jejunal pouch, mean±SEM
Experimental: Male Wistar rats weighed 250 g to 300 g were used in this experiment. The rats were randomly divided into 2 groups: sham-operation control group (CON) and ischemia/reperfusion group (I/R). Before the experiment, the rats were fasted overnight but allowed to drink water ad lib. The experiment was conducted in a sterile environment. The rats in the two groups were anethesized by intraperitoneal injection of ethyl urethane (1.2 g/kg), and then subjected to abdominal median incision. A jejunal pouch of 10 cm was made at 10 cm from the end of suspensory ligament of duodenum. A 1 ml syringe with a PE-10 catheter was intubated to one end of the jejunal pouch and 0.5 ml of Krebs buffer solution was slowly injected into the pouch from the syringe. The formula of Krebs buffer solution was as follows: 115 mmol/L of NaCl, 8 mmol/L of KCl, 1.25 mmol/L of Ca Cl2, 1.2 mmol/L of MgCl2, 2.0 mmol/L of KH2PO4 and 25 mmol/L of NaHCO3, with a pH of 7.33 to 7.37. […] The CON rats were subjected to abdominal median incision but not subjected to SMA closure. Thereafter, the tissue samples were taken from the rats of these 2 groups for histologic examination and analysis of bacterial translocation (as shown below). […]
In order to determine the rate of the Gd-containing contrast agent transferred from jejunal lumen into systemic circulation, a PE-50 catheter was intubated into left femoral artery before the surgical operation. […] The intensity of signal indication of each plasma sample and of each standard solution was calculated by using a determining device to circle a region of 4 mm^2 in MRI image and to calculate the intensity of signal indication in the region (mm^2). […] The concentration of the Gd-containing contrast agent in the plasma samples at each time point was calculated, using the standard curve. The flow-out rate of the Gd-containing contrast agent flowing from intestinal lumen to systemic circulation at different stages of reperfusion was calculated and expressed in mM/min.

CNC(=O)CN(CCN(CCN(CC(=O)[O-])CC(=O)NC)CC(=O)[O-])CC(=O)[O-].[Gd+3] [Gd-containing contrast agent]
concentration of the Gd-containing contrast agent in the plasma (CON rats (sham operation), 15 minutes): 6 ± 4 µM
concentration of the Gd-containing contrast agent in the plasma (I/R rats (20 min SMA closure), after 15 minutes of reperfusion): 220 ± 44 µM
flow-out rate of the Gd-containing contrast agent from intestinal lumen to systemic circulation, I/R rats versus CON rats (stage of 0-15 minutes of reperfusion): significantly higher than that in CON rats
